Key:
Type in all cases: biochemical
[1] = standard PCR reaction with cyanine-labeled dNTPs; conditions: compared with the wild-type enzyme
Description: Although the examples provided herein use dideoxynucleotides labeled with fluorescein family dyes, the use of other unconventional nucleotides and fluorescent dyes is also within the scope of this invention. Other unconventional nucleotides include fluorescently-labled dNTPs, which can be used to label the products of DNA synthesis, and fluorescently-labled rNTPs, which can be used to label the primer extension products. Other dyes include other negatively charged fluorescent dyes, such as BODIPY, which are structurally and chemically similar to fluorescein. Other dyes also include cyanine dyes. Cyanine-labeled dNTPs were added to a standard PCR reaction which included a Taq DNA polymerase with the […] mutation (and a G46D mutation). […] Thus, in this aspect, a method of labeling DNA of the invention uses a native or mutant polymerase of the invention in combination with a nucleotide labeled with either a negatively charged fluorescent dye or a cyanine dye. In one embodiment, the DNA labeling method of the invention comprises: […]

[2] = test system: primer DG48 annealed to M13 mp18 template; test: limiting template, primer extension competition assay (ddNTP incorporation assay); conditions: ratio of concentrations for 50% inhibition by Zowie-ddCTP vs. ddCTP
Method: The ability of the enzymes of this invention to efficiently incorporate nucleotides labeled with fluorescein family dyes is measured by ddNTP incorporation assays. One such assay is a primer extension competition assay conducted under conditions of limiting template. In this assay, a primer DG48 (5′-[…]), (SEQ ID NO: 11), bound to M13 mp18 template (Innis et al., 1988, Proc. Natl. Acad. Sci. USA 85:9436) is extended in the presence of [α-^33P]dCTP and excess enzyme with various levels of a fluorescently labeled ddNTP, Zowie-ddCTP. Because the incorporation of a ddCTP residue terminates the extension reaction, the more readily a DNA polymerase incorporates a ddCTP into an extended primer, the less [α-^33P]dCTP can be incorporated. Thus, as the efficiency of fluorescently labeled ddCTP incorporation increases, the extent of inhibition of DNA synthesis is increased. The reactions were also performed with various levels of an unlabeled ddCTP. […]
The relative abilities of G46D F667Y Taq, G46D F667Y E681K Taq and F730Y Tma30 DNA polymerases to incorporate a fluorescein dye family-labeled ddCTP were compared by use of a limiting template, primer extension competition assay. […] In this competition assay, because the incorporation of a ddCTP terminates the extension reaction, the more readily the polymerase incorporates a ddCTP into an extended primer, the less [α-^33P]dCTP can be incorporated. […]

[3] = test system: primer annealed to an M13 template; test: Extension rate assay; conditions: 75° C
Method: The extension rate of G46D F667Y Taq and G46D F667Y E681K Taq were determined using an extension rate assay. In this experiment, the enzymes were used to extend a primer annealed to an M13 template in the presence of [α-^33P]dCTP. The extension reactions were denatured and the products analyzed by denaturing agarose gel electrophoresis.
The assay was performed as previously described (Lawyer et al., 1989, J. Biol. Chem. 264:6427) including the following modifications. The assay mixture was composed so the final concentration was 50 mM Bicine pH 8.3, 25° C., 2.5 mM MgCl2, 1 mM β-mercaptoethanol, 200 μM each of dATP, dGTP and dTTP (Perkin-Elmer), 100 μM dCTP (Perkin-Elmer) containing [α-^33P]dCTP (New England Nuclear, Boston, Mass.). M13 mp18 (Perkin-Elmer) was annealed to primer DG48, (SEQ ID NO: 11), and the equivalent of 0.085 pmoles of the annealed template was added to the assay mixture for each reaction. Forty-five μl of the assay mixture with template DNA was added to each of fourteen 0.5 ml eppendorf tubes. Each tube was preincubated at 75° C. for at least 30 seconds before the start of the polymerase reaction.
Polymerization was initiated in six of the fourteen assay tubes with 5 μl of G46D F667Y Taq DNA polymerase (2.5 units) or G46D F667Y E681K Taq DNA polymerase (1.25 units). Both enzymes were prepared as in Example I and the concentration used represents a predetermined excess amount of enzyme for the amount of substrate in the assay. As a control for the level of background, the remaining negative control was initiated with enzyme dilution buffer rather than polymerase. All reaction tubes were immediately vortexed briefly and incubated at 75° C. Two of the six tubes containing G46D F667Y Taq DNA polymerase were incubated 3 minutes, two for 6 minutes and two for 10 minutes. Similarly, two of the tubes started with G46D F667Y E681K Taq DNA polymerase were incubated for 30 seconds, two for 1 minute and two for 2 minutes. The control tubes were incubated for 3 minutes. The reactions were stopped by addition of 10 μl 60 mM EDTA and stored at 0° C.
For each reaction, a 25 μl aliquot of the 60 μl reaction was diluted with 1 ml 2 mM EDTA, 50 μg/ml sheared salmon sperm DNA as a carrier. The DNA was precipitated with TCA using standard procedures and collected on GF/C filter discs (Whatman). The amount of incorporated [α-^33P]dCMP was determined for each sample.
The remaining 35 μl of each duplicated were combined and the 70 μl sample was ethanol precipitated, dried and resuspended in 50 mM NaOH, 1 mM EDTA. Aliquots were removed from these samples such that an equal number of α-^33P] counts were taken from each. These aliquots were loaded on an 0.9% alkaline agarose gel, electrophoresed, dried and autoradiographed as previously described (Maniatis et al., 1982, In Molecular Cloning: A Laboratory Manual, Cold Spring Harbor Laboratory, Cold Spring Harbor, N.Y.) Bacteriophage lambda DNA cut with restriction enzyme HindIII (BRL) and 5′ end-labeled with [^32P] was used as a molecular weight standard.
The length in base pairs of the extension product in each sample was determined by comparison of the migration distance of each sample with the distance migrated by the lambda DNA size standard. The number of base pairs in each product was divided by the number of seconds each extension reaction incubated to give the extension rate as shown below.

[4] = screen of transformants for incorporation of [α-32P]Tet-dCTP; conditions: in comparison to the wild-type enzyme
Description: The C-terminal amino acid portion of Taq DNA polymerase encodes the polymerase active site domain (Lawyer et al., 1993, PCR Methods and Applications 2:275-287, Freemont et al., 1986, Proteins: Structure, Function and Genetics 1:66-73, which are incorporated herein by reference). A DNA fragment containing this region was isolated from the full-length Taq gene and mutagenized by PCR amplification in the presence of manganese (Leung et al, 1989, Technique 1(1):11-15). For this example, all restriction enzymes were purchased from New England Biolabs, Beverly Mass. The mutagenized fragments were digested with PstI and BglII and cloned into a Taq expression plasmid, pLK102, which had been digested with PstI and BglII. Plasmid pLK102 is a derivative of pLK101 in which the 900 bp PstI-BglII fragment is replaced by a short PstI-BglII linker. […]
The mutagenized Taq expression plasmid of mutant CS1 was digested with HindIII/NheI and the resulting restriction fragment was subcloned into the wild-type gene of pLK101, replacing the unmutagenized HindIII/NheI fragment, to determine which portion of the mutagenized Taq polymerase gene was responsible for the altered phenotype. […] Subsequent subclone analysis determined that the mutation was located in the 265 bp BamHI-NheI fragment.

G46D E681K Taq: thermostable Taq DNA polymerase with G46D and E681K mutations, encoded by plasmid pLK112
incorporation of cyanine-labeled dNTPs into amplification products [1]: higher than for the wild-type enzyme

G46D F667Y Taq: Taq DNA polymerase having an F667Y mutation and a G46D mutation; known as AmpliTaq, FS [reference compound]
Zowie-ddCTP/ddCTP (ratio of concentrations for 50% inhibition) [2]: 25 | extension rate, Base Pairs/Sec ([3]; Time 3 min.): 12.5 Base Pairs/Sec | extension rate, Base Pairs/Sec ([3]; Time 6 min.): 12.2 Base Pairs/Sec | extension rate, Base Pairs/Sec ([3]; Time 10 min.): 11.8 Base Pairs/Sec

Mutant CS1: mutagenized Taq DNA polymerase clone (plasmid pCS1) carrying the E681K mutation
ability to incorporate [α-32P]Tet-dCTP [4]: more efficiently incorporate
